From patent US4277479A, “Tetrazolylalkoxycarbostyril derivatives and pharmaceutical compositions containing them” (Otsuka Pharmaceutical Co., Ltd., priority 1978, dated 1981) come the findings set out here.

As a reminder, the LD50 is the dose expected to kill half of the subjects tested. Low values mean a more toxic substance, high ones a less toxic substance.

In data set [1] the test system is rabbit platelet (ADP-induced aggregation). Nature of the data set: Platelet aggregation inhibitory effect, ADP-induced aggregation in rabbit platelet. In kind it is cell-based. To be noted: Oryctolagus cuniculus, read-out: Inhibition effect on ADP-induced aggregation in rabbit platelet. The source says:
(§1) The blood sample used for the test is a 1/9 (by volume) mixture of sodium citrate and whole blood collected from rabbit. Said sample is subjected to 10-minute centrifugal separation at 1,000 r.p.m. to obtain a platelet rich plasma (PRP). The thus obtained PRP is separated, and the remaining blood sample is further subjected to 15-minute centrifugal separation at 3,000 r.p.m. to obtain a platelet poor plasma (PPP).
(§2) The number of platelets in the PRP is counted by the Brecher-Clonkite Method, and the PRP is diluted with the PPP to prepare a PRP sample with platelet concentration of 300,000/mm^3 for the adenosine diphosphate (ADP)-induced aggregation test. There is also prepared a PRP sample with platelet concentration of 450,000/mm^3 for the collagen-induced aggregation test.
(§3) 0.6 Ml of said PRP sample is added into 0.01 ml of a solution of a test compound of a predetermined concentration and the mixture is placed in a 37° C. thermostat for one minute. Then 0.07 ml of an ADP or collagen solution is added to the mixture. Transmittance of this mixture is determined and the change of transmittance is recorded by using the aggregometer at stirrer speed of 1,100 r.p.m. […] ADP is adjusted to a concentration of 7.5×10^-5 M, and the collagen solution is prepared by triturating 100 mg of collagen with 5 ml of said buffer and the supernatant is used as collagen inducer. Adenosine and acetylsalicylic acid are used as controls for the ADP-induced aggregation test and the collagen-induced aggregation test, respectively. The platelet aggregation inhibitory effect is measured in terms of percent inhibition with respect to the aggregation rate of the controls. The aggregation rate is calculated from the following formula: [formula] wherein a: transmittance of PRP
(§4) b: transmittance of PRP containing a test compound and an aggregation inducer
(§5) The compounds tested are as follows.

Data set [2] deals with rabbit platelet (collagen-induced aggregation). Nature of the data set: Platelet aggregation inhibitory effect, collagen-induced aggregation in rabbit platelet. In kind it is cell-based. The following applies: Oryctolagus cuniculus, read-out: Inhibition effect on collagen-induced aggregation in rabbit platelet.
Excerpt: as §1, §2, §3, §4, §5

Data set [3] can be described thus: Acute toxicity test. The following applies: mouse, in vivo; male mice, oral administration. The protocol: The test compounds were administered orally to the mice and LD50 (mg/kg) of the compounds was determined.
Data set [4] deals with T1, cyclic AMP phosphodiesterase (Oryctolagus cuniculus, UniProt G1ST54).
T1 construct: the supernatant was collected to use it as a crude enzyme solution; from tissue; host or cells: rabbit platelets (from platelet-rich plasma)
T1 sequence (G1ST54 1-1128): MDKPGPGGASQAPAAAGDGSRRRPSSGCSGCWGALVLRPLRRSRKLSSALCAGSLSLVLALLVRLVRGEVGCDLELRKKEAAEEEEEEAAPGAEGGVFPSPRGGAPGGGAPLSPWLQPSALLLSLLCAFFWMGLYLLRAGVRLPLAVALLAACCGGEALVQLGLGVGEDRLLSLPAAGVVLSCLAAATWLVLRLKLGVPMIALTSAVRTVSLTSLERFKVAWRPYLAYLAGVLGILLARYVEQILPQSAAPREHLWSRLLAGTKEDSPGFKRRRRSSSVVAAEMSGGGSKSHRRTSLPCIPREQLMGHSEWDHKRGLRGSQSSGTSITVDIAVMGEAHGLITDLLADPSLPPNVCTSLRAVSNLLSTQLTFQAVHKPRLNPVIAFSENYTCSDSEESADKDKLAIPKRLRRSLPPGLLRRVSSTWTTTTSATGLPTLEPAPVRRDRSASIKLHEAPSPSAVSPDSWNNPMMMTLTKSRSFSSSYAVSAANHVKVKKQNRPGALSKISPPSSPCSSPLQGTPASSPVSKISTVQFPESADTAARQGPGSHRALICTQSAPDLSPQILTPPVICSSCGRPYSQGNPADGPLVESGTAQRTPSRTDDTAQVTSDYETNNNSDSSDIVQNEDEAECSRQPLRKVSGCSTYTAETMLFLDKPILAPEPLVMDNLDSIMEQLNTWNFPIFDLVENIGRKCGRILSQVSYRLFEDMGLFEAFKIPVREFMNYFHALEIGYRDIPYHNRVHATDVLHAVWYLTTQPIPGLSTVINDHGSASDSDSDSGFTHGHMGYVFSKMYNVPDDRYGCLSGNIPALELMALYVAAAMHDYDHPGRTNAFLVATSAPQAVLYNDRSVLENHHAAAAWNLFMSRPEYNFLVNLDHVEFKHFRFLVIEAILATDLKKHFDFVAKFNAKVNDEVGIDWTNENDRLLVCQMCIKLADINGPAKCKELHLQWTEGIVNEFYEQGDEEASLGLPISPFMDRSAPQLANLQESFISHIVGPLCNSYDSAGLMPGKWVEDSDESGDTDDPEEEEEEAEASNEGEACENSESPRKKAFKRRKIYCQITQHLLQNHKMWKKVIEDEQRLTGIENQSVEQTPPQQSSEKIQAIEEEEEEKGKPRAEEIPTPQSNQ
In words: Obstructive action against cyclic AMP phosphodiesterase. To be noted: 0.4 μmol cyclic AMP, read-out: Phosphodiesterase obstruction rate. In kind it is biochemical, rabbit. The protocol:
(Test of obstructive action against cyclic AMP phosphodiesterase)
The obstructive action against cyclic AMP phosphodiesterase was measured according to the activity measuring method described in "Biochimica et Biophysica Acta", Vol. 429, pp. 485-497 (1976) and "Biochemical Medicine", Vol. 10, pp. 301-311 (1974).
That is, for determining the obstructive activity against cyclic AMP phosphodiesterase, 10 ml of a solution obtained by adding 1 mmol of MgCl2 into 50 mmol of tris-hydrochloric acid buffer with pH 7.4 was added to the platelets obtained by further centrifuging the above-said rabbit PRP at 3,000 r.p.m. for 10 minutes, and the suspended platelets were ground by a Teflon potter type homogenizer. This was followed by two times of freezing and thawing treatment and 300-second fracturing with 200 watt supersonic waves. After additional 60-minute centrifugation with 100,000 g, the supernatant was collected to use it as a crude enzyme solution.
10 Milliliters of this crude buffer solution was added to a 1.5×20 cm DEAE-cellulose column which has previously been buffered with 50 mmol of tris-acetate buffer (pH 6.0), followed by washing and elution with 30 ml of 50 mmol tris-acetate buffer, and this buffer solution was subjected to linear gradient elution with 0 to 1 moles of sodium acetate-tris-acetate buffer. The flow rate was 0.5 ml/min, and 5 ml of each fraction was batched out. […] This fraction was used as cyclic AMP phosphodiesterase.
0.1 Milliliter of an aqueous solution of each test compound of a specified concentration was mixed with 40 mmol of tris-hydrochloric acid buffer (pH 8.0, containing 50 μg of cow serum albumin and 4 mmol of MgCl2) containing predetermined 0.4 μmol of cyclic AMP (tritium cyclic AMP), and 0.2 ml of this mixed solution was used as a substrate solution.
0.2 Milliliter of the above-prepared cyclic AMP phosphodiesterase of a predetermined concentration was added to said substrate solution and the mixture was reacted at 30° C. for 20 minutes, producing tritium 5'-AMP from the tritium cyclic AMP.
The reaction system was then immersed in boiling water for 2 minutes to stop the reaction, and then this reaction solution was cooled in ice water and, for converting the produced tritium 5'-AMP into tritium adenosine, the solution was added with 0.05 ml (1 mg/ml) of snake poison as 5'-nucleotidase and reacted at 30° C. for 10 minutes. The whole amount of this reaction solutions was then added to a cation exchange resin (AG 500 W×4, 200-400 meshes, manufactured by Bio-Rad Co., column size: 0.5×1.5 cm), and the produced tritium anodesine alone was allowed to combine, washed with 6 ml of distilled water and eluted with 1.5 ml of 3 N-ammonia water. The whole quantity of the elutant was added with 10 ml of a triton-toluene type scintillator and the produced tritium adenosine was measured by a liquid scintillation counter to determine the phosphodiesterase activity.
In this way, the phosphodiesterase activation value (Vs) of the test compounds of the respective concentrations was determined, and the phosphodiesterase obstruction rate (%) was determined from said activation value (Vs) and control value (Vc) (obtained from water not containing any test compound) from the following formula: [formula]

[5] abbreviates: concentration of the test compound solution 10^-4 mole.
The mark [6] stands for this setting: concentration of the test compound solution 10^-5 mole.

Like-named read-outs stand apart in the source and are kept apart here. A value given as a limit tells only on which side of the number the result lay.

As for `CC(=O)Oc1ccccc1C(=O)O` [Compound 17, Aspirin, reference compound], in data set [1], the inhibition at 10 µM is 0% and the inhibition at 100 µM stood at 7%. In data set [2], the inhibition at 1 µM came out at 7%, the inhibition at 10 µM amounted to 9% and the inhibition at 100 µM is 65%.
Regarding `CSc1nnnn1CCCOc1ccc2c(c1)CCC(=O)N2` [Compound 18, 6-[3-(5-Methylthiotetrazol-1-yl)propoxy]-3,4-dihydrocarbostyril, reference compound], the inhibition at 100 µM worked out at 0% in data set [1] (setting [5]) and 67.4% in data set [2] (setting [5]). The inhibition at 10 µM in data set [2] (setting [6]) is 13.3%.
For `O=C1CCc2cc(OCCN3CCOCC3)ccc2N1` [Compound 24, 6-(2-Morpholinoethoxy)-3,4-dihydrocarbostyril, reference compound], the inhibition at 100 µM in data set [1] (setting [5]) worked out at 17%; in data set [2] (setting [5]), 31%.
`O=C1CCc2c(cccc2OCCCN2CCCCC2)N1` [Compound 23, 5-(3-Piperidinopropoxy)-3,4-dihydrocarbostyril, reference compound]: the values for the inhibition at 100 µM in data set [1] (setting [5]) and in data set [2] (setting [5]) were 15% and 27%, respectively.
Take `COc1cc(C(=O)N2C(=O)CCc3cc(OCCCc4nnnn4C4CCCCC4)ccc32)cc(OC)c1OC` [Compound 16, 1-(3,4,5-Trimethoxybenzoyl)-6-[3-(1-cyclohexyltetrazol-5-yl)propoxy]-3,4-dihydrocarbostyril]: the values for the inhibition at 100 µM in data set [1] (setting [5]) and in data set [2] (setting [5]) were 75.6% and 91.3%, respectively. In addition, the inhibition at 10 µM worked out at 48.4% in data set [1] (setting [6]) and 45.3% in data set [2] (setting [6]). Besides, the LD50 in data set [3] was over 1000 mg/kg.
`CC(=O)N1C(=O)CCc2cc(OCCCc3nnnn3C3CCCCC3)ccc21` [Compound 14, 1-Acetyl-6-[3-(1-cyclohexyltetrazol-5-yl)propoxy]-3,4-dihydrocarbostyril]: the figures for the inhibition at 100 µM in data set [1] (setting [5]) and in data set [2] (setting [5]) were 79.4% and 86.8%, respectively. The inhibition at 10 µM in data set [1] (setting [6]) was 43.2%; in data set [2] (setting [6]), 47.3%. Also, the LD50 in data set [3] is over 1000 mg/kg.
Consider `O=C1CCc2c(cccc2OCCN2CCCCC2)N1` [Compound 21, 5-(2-Piperidinoethoxy)-3,4-dihydrocarbostyril, reference compound], for which the inhibition at 100 µM in data set [1] (setting [5]) was 18%; in data set [2] (setting [5]) it was 25%.
On to `CC(COc1cccc2c1NC(=O)CC2)N1CCCCC1` (centres unmarked) [Compound 26, 8-(2-Piperidinopropoxy)-3,4-dihydrocarbostyril, reference compound], for which the inhibition at 100 µM in data set [1] (setting [5]) amounted to 14%; in data set [2] (setting [5]), 12%.
For `O=C1CCc2cc(OCCCn3cnnn3)ccc2N1` [Compound 20, 6-[3-(Tetrazol-1-yl)propoxy]-3,4-dihydrocarbostyril, reference compound], the inhibition at 100 µM is 4.3% in data set [1] (setting [5]) and 77.4% in data set [2] (setting [5]). In addition, the inhibition at 10 µM in data set [2] (setting [6]) was 0%.
Take `O=C1CCc2ccc(OCCCN3CCCCC3)cc2N1` [Compound 25, 7-(3-Piperidinopropoxy)-3,4-dihydrocarbostyril, reference compound]: the inhibition at 100 µM in data set [1] (setting [5]) turned out to be 12%; in data set [2] (setting [5]), 18%.
As to `CSc1nnn(CCCOc2ccc3c(c2)CCC(=O)N3)n1` [Compound 19, 6-[3-(5-Methylthiotetrazol-2-yl)propoxy]-3,4-dihydrocarbostyril, reference compound], the figures for the inhibition at 100 µM in data set [1] (setting [5]) and in data set [2] (setting [5]) were 2.3% and 73.4%, respectively. Further, in data set [2] (setting [6]), the inhibition at 10 µM is 1.3%.
As to `CC(C)Cn1c(=O)n(C)c(=O)c2[nH]cnc21` [1-Methyl-3-isobutylxanthine, 1-methyl-3-isobutylxanthine, reference compound], the inhibition at 1 µM in data set [4] (concentration of test compound solution 10^-6 mole) came out at 63.4%. For the same compound, the inhibition in data set [4] (concentration of test compound solution 10^-7 mole) was found to be 4.2%.
As to `O=C1CCc2c(cccc2OCCN2CCOCC2)N1` [Compound 22, 5-(2-Morpholinoethoxy)-3,4-dihydrocarbostyril, reference compound], the inhibition at 100 µM in data set [1] (setting [5]) came to 13%; in data set [2] (setting [5]), 23%.
